Measurements published in patent US5474757A, “Prevention of acetaminophen overdose toxicity with organosulfur compounds” (priority 1992, dated 1995).
Where “and” joins values, the source holds several entries; their conditions need not be identical. Equal entries are not always repeated. Entries after “also recorded” stand apart in the source; their conditions may differ. Where two headings read alike, the source gives them in different places.

Experiments:
[1] = test system: acetaminophen-induced hepatotoxicity; test: animal or person
Text: Blood samples were obtained from the jugular vein of CO2 -anesthetizedanimals. The blood was allowed to clot at room temperature and serum was separated by centrifugation. […] Biochem. Biophys.
Randomly-selected samples of the major hepatic lobe were fixed in 10% buffered formalin for histological evaluation. Samples were subsequently embedded in Paraplast (Fisher Scientific) and sectioned at 6 μm on a rotary microtome. Tissue sections were stained with hematoxylin-eosine-phloxine for examination. Extent of tissue damage was determined using a Presage CV-6 Image Analysis System (Advanced Imaging Concepts, Inc.). Images of randomly-selected slides (3 slides/animal, 2-3 animals/group) containing full cross sections of the major hepatic lobe were projected onto a computer screen and the image captured. The areas of damage were then outlined on the screen and the areas quantated using interactive software. The area of damage was shown as a percentage of the total hepatic area for each section. All determinations were made without knowledge of treatment group.
Data were analyzed by the Newman-Keuls multiple comparison procedure on the rank score analysis.
All experiments were replicated at least once.
As a Comparative Example, 300 mg/kg N-acetylcysteine was also administered immediately after administration of 0.2 g/kg acetaminophen.
As a Comparative Example, 300 mg/kg N-acetylcysteine was also administered 1 hour after administration of 0.2 g/kg acetaminophen.

hepatotoxicity = settings: cited from earlier work
P-450 2E1 [2] = test: Hepatic microsomal NDMA demethylase activity after a single oral dose in mice; format: in vivo, mouse; settings: for NDMA demethylase activity, % of the control level: 50 mg/kg single oral dose
Protocol: (§1) Biochem. Biophys. 238:42-48 (1985).
(§2) In Example 3, this effect was studied in mice. In Example 3, changes in hepatic monooxygenase enzymes after a single oral dose of DASO2 were studied. DASO2 (50 mg/kg) was administrated to mice intragastrically and sacrificed at the indicated time. Control (0 time) mice received distilled water only.
(§3) Hepatic microsomal NDMA demethylase activity (O) is expressed as nmol HCHO produced/min/mg. Pentoxyresorufin ([ ]) and ethoxyresorufin dealkylase activities are expressed as pmol resorufin produced/min/mg. Each point represents the mean ±S.D. of five separate microsomal preparations. *p<0.05 compared to control.

P-450 1A2 = test: Hepatic microsomal ethoxyresorufin (EORR) dealkylase activity after a single oral dose in mice; format: in vivo, mouse
Protocol: as §1, §2, §3

[3] = test system: acetaminophen-induced hepatotoxicity; test: Protective effect against acetaminophen overdose in rats (serum GPT, LDH, liver damage); format: in vivo, rat (male Fisher 344)
Protocol: Brady et al., "Effect of […] […] Biochem. […] Extent of tissue damage was determined using a […]-6 Image Analysis System (Advanced Imaging Concepts, Inc.). […] All determinations were made without knowledge of treatment group. […] All experiments were replicated at least once.

P-450 2E1 [4] = settings: cited from earlier work; for liver microsomal P-450 2E1-dependent (NDMA demethylase) activity: treatment of rats
[5] = test system: p-nitrophenol hydroxylase; settings: isolated rat liver microsomes; cited from earlier work
P-450 2E1 [6] = settings: isolated rat liver microsomes; cited from earlier work
acetaminophen overdose = settings: cited from earlier work; for protective action: animals; for protection in acetaminophen overdose: Prescott et al.
[7] = test system: acetaminophen bioactivation; settings: cited from earlier work
[8] = APAP only, 0.2 g/kg oral, fasted mice, 24 h
[9] = 5 mg/kg oral, 1 h after APAP 0.4 g/kg
[10] = 5 mg/kg oral, 3 hours after APAP 0.4 g/kg
[11] = 15 mg/kg oral, 1 h after APAP 0.4 g/kg
[12] = 50 mg/kg oral, 1 hour after APAP 0.4 g/kg, mean ± SD of five rats
[13] = 50 mg/kg oral, 3 hours after APAP 0.4 g/kg
[14] = 50 mg/kg oral, 6 hours after APAP 0.4 g/kg
[15] = 5 mg/kg oral, immediately (0 min) after APAP 0.2 g/kg
[16] = 10 mg/kg oral, 20 min after APAP 0.2 g/kg
[17] = 25 mg/kg oral, 20 min after APAP 0.2 g/kg
[18] = 25 mg/kg oral, 1 hour after APAP 0.2 g/kg
[19] = 25 mg/kg oral, immediately (0 min) after APAP 0.2 g/kg
[20] = 50 mg/kg oral, immediately (0 min) after APAP 0.2 g/kg
[21] = orally less than 24 hours after the overdose
[22] = 600 mg/kg oral, 1 hour after APAP 0.4 g/kg
[23] = 600 mg/kg oral, 6 hours after APAP 0.4 g/kg
[24] = 300 mg/kg oral, 1 hour after APAP 0.2 g/kg
[25] = 300 mg/kg oral, immediately after APAP 0.2 g/kg

Structure (SMILES): CC(=O)Nc1ccc(O)cc1 [APAP, N-acetyl-p-aminophenol, reference compound]
- Extent of liver damage [1, 8]: 26-40%
- LDH [1, 8]: 17227 ± 3464 U/L
- Survival [1, 8]: 2/5
- increase of serum LDH ([1]; acetaminophen 0.2 g/kg, mice): 20 fold
- liver histology ([1]; acetaminophen 0.2 g/kg, surviving mice (FIG. 2B)): hepatocellular necrosis; also recorded: typical centrilobular degeneration, necrosis, and inflammation
- plasma acetaminophen level always associated with hepatic damage (hepatotoxicity; 4 hours after ingestion): greater than 300 mcg/ml
- plasma acetaminophen level always associated with hepatic damage (hepatotoxicity; 12 hours after ingestion): greater than 50 mcg/ml
- fatalities (hepatotoxicity; acute overdoses of less than 15 g): rare
- single dose after which hepatotoxicity may occur (hepatotoxicity; in vivo): 7.5 to 10 g
- plasma acetaminophen half-life above which hepatic necrosis is likely (hepatotoxicity; overdose): exceeds 4 hours

Structure (SMILES): C=CCS(=O)(=O)CC=C [DASO2, diallyl sulfone]
- NDMA demethylase activity, % of the control level (P-450 2E1 [2]; 0.5 hours): 31%
- NDMA demethylase activity, % of the control level (P-450 2E1 [2]; 1 hour): 54%
- NDMA demethylase activity, % of the control level (P-450 2E1 [2]; 3 hours): 49%
- NDMA demethylase activity, % of the control level (P-450 2E1 [2]; 6 hours): 73%
- hepatic cytochrome P-450 2E1 activity (P-450 2E1 [2]; oral administration, mice): rapid decreases
- ethoxyresorufin (EORR) dealkylase activity, % of control level (P-450 1A2; 50 mg/kg single oral dose, 0.5 hours): 79%
- ethoxyresorufin (EORR) dealkylase activity, % of control level (P-450 1A2; 50 mg/kg single oral dose, 1 hour): 39%
- ethoxyresorufin (EORR) dealkylase activity, % of control level (P-450 1A2; 50 mg/kg single oral dose, 3 hours): 52%
- ethoxyresorufin (EORR) dealkylase activity, % of control level (P-450 1A2; 50 mg/kg single oral dose, 6 hours): 46%
- EORR dealkylase activity (P-450 1A2; 50 mg/kg single oral dose, after 15 hours): returned to control levels
- hepatic cytochrome P-450 1A2 activity (P-450 1A2; oral administration, mice): rapid decreases
- Extent of liver necrosis (grade) [3, 9]: 1
- GPT [3, 9]: 162 ± 27.3 U/L
- LDH [3, 9]: 377 ± 71 U/L
- Extent of liver damage [3, 10]: 23-38%
- GPT [3, 10]: 139 ± 46 U/L
- Extent of liver necrosis (grade) [3, 11]: 1
- GPT [3, 11]: 52 ± 8.2 U/L
- LDH [3, 11]: 222 ± 44 U/L
- Extent of liver necrosis (grade) ([3]; 50 mg/kg oral, 1 h after APAP 0.4 g/kg): 0
- Extent of liver damage ([3]; 50 mg/kg oral, 1 hour after APAP 0.4 g/kg): 0-5%
- GPT [3, 12]: 48 ± 9 U/L and 48 ± 9.6 U/L
- LDH [3, 12]: 279 ± 50 U/L and 279 ± 41 U/L
- Extent of liver necrosis (grade) ([3]; 50 mg/kg oral, 3 h after APAP 0.4 g/kg): 1
- Extent of liver damage [3, 13]: 4-8%
- GPT [3, 13]: 133 ± 64 U/L
- LDH [3, 13]: 315 ± 120 U/L
- Extent of liver necrosis (grade) ([3]; 50 mg/kg oral, 6 h after APAP 0.4 g/kg): 2
- Extent of liver damage [3, 14]: 21-40%
- GPT [3, 14]: 182 ± 47 U/L
- LDH [3, 14]: 375 ± 111 U/L
- minimal effective dose ([3]; Rattus norvegicus, rats, read-out: low dose at which protective effect was demonstrated): 5 mg/kg
- Extent of liver damage [1, 15]: 3-5%
- GPT [1, 15]: 51 ± 8 U/L
- LDH [1, 15]: 433 ± 98 U/L
- Survival [1, 15]: 5/5
- GPT [1, 16]: 212 ± 1 U/L
- LDH [1, 16]: 16639 ± 8578 U/L
- Survival [1, 16]: 5/5
- GPT [1, 17]: 89 ± 13 U/L
- LDH [1, 17]: 648 ± 231 U/L
- Survival [1, 17]: 5/5
- Extent of liver damage [1, 18]: 3-10%
- GPT [1, 18]: 110 ± 70 U/L
- LDH [1, 18]: 1340 ± 1568 U/L
- Survival [1, 18]: 5/5
- Extent of liver damage [1, 19]: 5-10%
- GPT [1, 19]: 66 ± 18 U/L and 84 ± 37 U/L
- LDH [1, 19]: 611 ± 252 U/L
- Survival [1, 19]: 5/5
- Extent of liver damage [1, 20]: 4-9%
- GPT [1, 20]: 79 ± 5 U/L
- LDH [1, 20]: 772 ± 1138 U/L and 772 ± 138 U/L
- Survival [1, 20]: 5/5
- ED (maximal) ([1]; Mus musculus, read-out: dose sufficient to produce maximal protection): 5 mg/kg
- minimal effective dose ([1]; Mus musculus, read-out: low dose at which protective effect was demonstrated): 5 mg/kg
- liver microsomal NDMA demethylase activity (P-450 2E1 [4]; 200 mg/kg, rats): marked decrease
- liver microsomal P-450 2E1-dependent (NDMA demethylase) activity (P-450 2E1 [4]): decreased

Structure (SMILES): C=CC[S+]([O-])CC=C [DASO, diallyl sulfoxide]
- inhibition of p-nitrophenol hydroxylase [5]: competitively
- inhibition of P-450 2E1-catalyzed NDMA demethylase (P-450 2E1 [6]): competitively
- liver microsomal P-450 2E1-dependent (NDMA demethylase) activity (P-450 2E1 [4]): decreased

Structure (SMILES): N[C@@H](CS)C(=O)O [L-cysteine]
- protective action (acetaminophen overdose): protective action
- effectiveness in acetaminophen overdose (acetaminophen overdose; [21]): effective

Structure (SMILES): CSCC[C@H](N)C(=O)O [L-methionine]
- protection in acetaminophen overdose (acetaminophen overdose): some protection
- protective action (acetaminophen overdose): protective action
- effectiveness in acetaminophen overdose (acetaminophen overdose; [21]): effective

Structure (SMILES): CC(=O)N[C@@H](CS)C(=O)O [N-AC, N-acetyl-L-cysteine, reference compound]
- protective action (acetaminophen overdose): protective action
- effectiveness in acetaminophen overdose (acetaminophen overdose; given orally): effective
- effectiveness in acetaminophen overdose (acetaminophen overdose; [21]): effective
- Extent of liver damage [3, 13]: 17-38%
- GPT [3, 13]: 135 ± 40 U/L
- prevention of liver necrosis and GPT elevation ([3]; 50 mg/kg, 3 hours after APAP, rats): partially prevented the development of liver necrosis and the elevation of the GPT level
- Extent of liver damage [3, 22]: 1-5%
- GPT [3, 22]: 47 ± 4 U/L
- LDH [3, 22]: 174 ± 35 U/L
- Extent of liver damage [3, 23]: 13-28%
- GPT [3, 23]: 153 ± 62 U/L
- LDH [3, 23]: 269 ± 92 U/L
- protection against liver toxicity ([3]; 600 mg/kg, 1 hr after APAP, compared with DASO2 50 mg/kg, rats): as effective as DASO2 (50 mg/kg) in preventing liver toxicity
- protection ([3]; 600 mg/kg, 6 hours after APAP, rats): partial protection
- dosage needed for similar protection relative to DAS / DASO2 ([3]; N-acetylcysteine dose versus DAS and DASO2 dose): more than ten-fold higher
- Extent of liver damage [1, 24]: 10-17%
- GPT [1, 24]: 131 ± 68 U/L
- LDH [1, 24]: 1140 ± 96 U/L
- Survival [1, 24]: 5/5
- Extent of liver damage [1, 25]: 0%
- GPT [1, 25]: 56 ± 4 U/L
- LDH [1, 25]: 629 ± 124 U/L
- Survival [1, 25]: 5/5
- protection against hepatotoxicity ([1]; 300 mg/kg, 1 hour after acetaminophen, mice): partial protection
- protection against acetaminophen toxicity ([1]; 300 mg/kg, immediately after acetaminophen, mice): protected against acetaminophen toxicity
- effectiveness against acetaminophen toxicity ([1]; 3 hours after acetaminophen dosing, mice (data not shown)): neither DASO2, N-AC nor the combination treatment was effective

Structure (SMILES): CN/C(=N/CCSCc1nc[nH]c1C)NC#N [cimetidine]
- inhibition of acetaminophen bioactivation [7]: inhibit acetaminophen bioactivation

Structure (SMILES): NCCS [cysteamine]
- protection in acetaminophen overdose (acetaminophen overdose): some protection

Structure (SMILES): C[S+](C)[O-] [dimethyl sulfoxide]
- inhibition of acetaminophen bioactivation [7]: inhibit acetaminophen bioactivation

Structure (SMILES): CCO [ethanol]
- inhibition of acetaminophen bioactivation [7]: inhibit acetaminophen bioactivation
